In patent US12215389B2, “Compositions for detecting epigenetic modifications” (EXACT SCIENCES CORPORATION, priority 2007, dated 2025):

Assays:
[1] = tested on: NDRG4 or OSMR plasmid material; experiment: Real-time MSP assay designs on plasmid material; set-up: key to Ct / Duplicate Ct / Average Ct: cycle number at which amplification curve crosses threshold; conditions: for PCR efficiency: from standard curve on plasmid material
Procedure: Plasmid material corresponding to a promoter region of NDRG4 and OSMR gene was used to test additional assay designs. The plasmid for the standard curve was generated as follows: the promoter sequence as defined by the primers is PCR amplified and cloned (using suitable isolated and bisulphite modified cell line DNA). The sequence is verified by sequencing and compared to the published promoter sequence. A serial dilution of either NDRG4 or OSMR plasmid material (2×10^6 to 2×10^1 copies/5 μl) was loaded in duplicate. 5 μl of plasmid dilution or buffer (non template control) was added to a 20 μl PCR mix containing the specified primer and beacon detector sequences as previously described. Results were generated using the SDS 2.2 software from Applied Biosystems with automatic baseline and threshold settings. Data were exported as Ct values (cycle number at which the amplification curves cross the threshold value, set automatically by the software).

[2] = tested on: methylated gene promoters in FFPE tissue DNA; experiment: Real-time MSP on colon tissue samples; set-up: species or system human; conditions: for Specificity (%) / Sensitivity (%): 50 cases (adenoma + carcinoma) vs 39 controls, tissue
Procedure: Real-time MSP was applied on a 7900HT fast real-time PCR system (Applied Biosystems). 2.4 μl of the modified DNA (equivalent to 2.5 μg unconverted DNA) was added to a PCR mix (total volume 12 μl) containing buffer (16.6 mM (NH4)2SO4, 67 mM Tris (pH 8.8), 6.7 mM MgCl2, 10 mM β-mercaptoethanol), dNTPs (5 mM), forward primer (6 ng), reverse primer (18 ng), molecular beacon (0.16 μM), BSA (0.1 μg), and Jumpstart DNA Taq polymerase (0.4 units; Sigma Aldrich). Cycle program used was as follows: 5 minutes 95° C., followed by 45 cycles of 30 seconds 95° C., 30 seconds 57° C. (51° C. for APC), and 30 seconds 72° C., followed by 5 minutes 72° C. A standard curve (2×106—20 copies) was included to determine copy numbers of unknown samples by interpolation of their Ct values to the standard curve.
Marker selection in colon tissue: Based on re-expression, 224 different gene assays representing 145 gene promotors were tested on the Base5 methylation profiling platform (data not shown, see reference 1 for details). The 37 most differentially methylated gene sequences assessing 29 gene promoters were validated on retrospectively collected tumors from 65 colorectal cancer patients (all stages) and 74 distant resection ends (histopathologically normal) using real-time MSP. Several markers reliably detected CRC in those tissue samples (data not shown). The results were confirmed on an independent test set containing 39 tissue controls (non-cancerous), 34 carcinomas and 16 adenomas. Several combinations of the tested markers reliably detected CRC with high specificity and sensitivity.
The ten best performing markers GATA5, GATA4, SFRP1, SFRP2, APC, MGMT, NDRG4, OSMR, JPH3 and ADAM23 were validated with primer sets and beacon probes as specified in Table 24. In addition to the colon test genes, the independent reference gene β-Actin (ACT) was also measured. The ratios between the colon test genes and ACT were calculated, and are the test result of the assay.
Marker candidates identified by re-expression were screened using 37 real-time methylation specific PCR (real-time MSP) assays. These assays were used to assess the methylation status of 29 gene promoters in 293 formalin-fixed paraffin-embedded (FFPE) tissue samples collected from various clinics. Samples included 99 carcinomas of various stages, 16 adenomas, 63 samples from patients with cancer other than CRC (20 breast [stages I-III], 22 bladder [stages I-III], 21 lung [stages I and II]), 39 samples from patients with no evidence of cancer and 76 distant resection ends (histopathologically normal) from CRC patients. These samples were divided into training and independent test sets, and used to select the gene methylation assays best able to discriminate between cancerous and non-cancerous samples. The training set included retrospectively collected tumors from 65 colorectal cancer patients (all stages) and 74 distant resection ends. Using the 10 best performing genes the results were confirmed on an independent test set containing 59 samples from patients with cancer other than CRC, 39 non-cancerous controls and 50 cancer cases (34 carcinomas and 16 adenomas).
The individual performance of the 10 best performing tissue markers OSMR, SFRP1, GATA4, SFRP2, NDRG4, ADAM23, GATA5, MGMT, APC and JPH3 is shown in FIG. 7, when the analytical cut-off was set to give 100% specificity, except for JPH3 where a specificity of 95% was obtained (based on the 39 non-cancerous controls). In addition to the colon test genes, the independent reference gene β-Actin (ACT) was also measured. The ratios between the colon test genes and ACT were calculated, and are the test result of the assay.

[3] = tested on: methylated gene promoters in fecal DNA; experiment: Real-time MSP on stool (fecal) DNA; set-up: species or system human; conditions: fecal samples; for Sens adenoma: 13 samples; for Sens CRC: 15 samples; for Spec: 19 samples
Source text: A standardized multicenter screening trial (The Netherlands) was initiated in 2006. In this trial, non symptomatic subjects aged 50 or above are screened with colonoscopy, FOBT and real-time MSP using DNA from stool and blood. In addition, prospectively collected stool samples from multiple centers (Germany and The Netherlands) were used. In these trials, symptomatic patients, attending a Gastroenterology clinic and ultimately diagnosed with CRC, provided a stool sample for use in real-time MSP. From the ongoing trials 147 stool samples were available for the present study. 3 main categories of stool samples were used: 67 samples with no suspicious findings, 58 adenomas and 22 samples from patients covering all stages of CRC, with 90% representing early stage disease.
After defecation in a special bucket, patients added 250 ml of stool homogenization buffer (Amresco, Solon, Ohio, USA) to the sample. Samples were shipped to the laboratory and further processed within 72 hours after defecation. Stool homogenization buffer was added to a ratio 1:7, and the samples were homogenized and aliquoted in portions of 32 ml.
Single aliquots (32 ml containing the equivalent of 4 g of stool) were centrifuged for 5 minutes at 2540 rcf at 20° C. The supernatant was retained and centrifuged a second time (10 minutes at 16500 rcf at 4° C.). 22 ml of the supernatant obtained following the second centrifugation step was incubated with 5 μl Rnase A for 60 minutes at 37° C. Total DNA was then SodiumAcetate (pH 5.2)-isopropanol precipitated and washed with 70% ethanol. The DNA was resuspended in 4 ml 1×TE (pH 7.4). 400 μl 10× buffer (240 mM EDTA (pH=8.0), 750 mM NaC), 400 μl 10% SDS, and 20 μl Proteinase K (20 mg/ml) was added and the samples were incubated at 48° C. overnight at constant shaking (225 RPM). After centrifugation (3000 RCF for 30 seconds at room temperature), 5 ml of Phenol:Chloroform:Isoamylalcohol (25:24:1, v/v:Invitrogen) was added and incubated for 10 minutes at room temperature shaking at 225 RPM and centrifuged for 5 minutes at 3000 RCF. The aqueous layer was transferred to a new tube containing 5 ml of Phenol:Chloroform:Isoamylalcohol. Again, the samples were incubated for 10 minutes at room temperature shaking at 225 RPM and centrifuged for 5 minutes at 3000 RCF at room temperature. The aqueous layer was transferred to a new tube and DNA was precipitated by adding 500 μl 7.5 M Ammonium Acetate, 5 μl glycogen and 10 ml of cold 100% Ethanol (−20° C.), further incubated at −20° C. for at least 1 hour and centrifuged at 15000 RCF for 30 minutes at 4° C. Pellets were washed with 3.5 ml freshly prepared 70% Ethanol and air dried. Pellets were finally resuspended in 2 ml of LoTE pH 8.0 and stored at −80° C., until further processing.
An upscaled DNA modification step was applied to 32 μg of the obtained DNA. 16 Aliquots of 2 μg of DNA were subjected to bisulfite modification in 96-wells format on a pipetting robot (Tecan), using the EZ-96DNA Methylation kit (Zymo Research), according to the manufacturer's protocol. Basically, aliquots of 45 μl were mixed with 5 μl of M-Dilution Buffer and incubated at 37° C. for 15 minutes shaking at 1100 rpm. Then 100 μl of the diluted CT Conversion Reagent was added and samples were incubated at 70° C. for 3 hours, shaking at 1100 rpm in the dark. After conversion, the samples were desalted by incubation on ice for 10 minutes and addition of 400 μl of M-Binding buffer. The samples were loaded on a Zymo-Spin I Column in a collection tube and after centrifugation washed with 200 μl of M-Wash Buffer. 200 μl of M-Desulphonation Buffer was put onto the column and incubated at room temperature for 15 minutes. After centrifugation of the columns, they were washed twice with 200 μl of M-Wash Buffer. Finally, the DNA was washed from the column in 50 μl Tris-HCl 1 mM pH8.0 and stored at −80° C., until further processing.

[4] = plasmid standard, quantity 20 copies
[5] = plasmid standard, quantity 200 copies
[6] = plasmid standard, quantity 2000 copies
[7] = plasmid standard, quantity 20000 copies
[8] = plasmid standard, quantity 200000 copies
[9] = plasmid standard, quantity 2000000 copies
[10] = 16 adenoma tissue samples vs 39 controls
[11] = 34 carcinoma tissue samples vs 39 controls

| Substance | PCR efficiency [1] [%] | Average Ct [1, 4] | Ct [1, 4] | Duplicate Ct [1, 4] | Average Ct [1, 5] | Ct [1, 5] | Duplicate Ct [1, 5] | Average Ct [1, 6] | Ct [1, 6] | Duplicate Ct [1, 6] | Average Ct [1, 7] | Ct [1, 7] | Duplicate Ct [1, 7] | Average Ct [1, 8] | Sensitivity [2, 10] [%] | Specificity [2, 10] [%] | Sensitivity [2, 11] [%] | Specificity [2, 11] [%] | Specificity (%) [2] [%] | Sensitivity (%) ([2]; first cut off ratio) | further results |
| --- | --- | --- | --- | --- | --- | --- | --- | --- | --- | --- | --- | --- | --- | --- | --- | --- | --- | --- | --- | --- | --- |
| OSMR_4 (DNA TTTGGTCGGGGTAGGAGTAGC; listed as DNA, chemistry not given here) | 100.8 | 34.37 | 34.63 | 34.12 | 31.28 | 31.37 | 31.18 | 28.08 | 28.24 | 27.91 | 24.72 | 24.79 | 24.64 | 21.31 |  |  |  |  |  |  | Ct [1, 8]: 21.56; Duplicate Ct [1, 8]: 21.05; Average Ct [1, 9]: 18.07; Ct [1, 9]: 18.24; Duplicate Ct [1, 9]: 17.90 |
| OSMR_3 (DNA TTTGGTCGGGGTAGGAGTAGC; listed as DNA, chemistry not given here) | 97.2 | 33.98 | 34.18 | 33.77 | 30.59 | 30.51 | 30.67 | 27.19 | 27.22 | 27.16 | 23.90 | 23.97 | 23.83 | 20.35 |  |  |  |  |  |  | Ct ([1]; NTC (non template control), quantity 0): 38.13; Ct [1, 8]: 20.41; Duplicate Ct [1, 8]: 20.29; Average Ct [1, 9]: 17.04; Ct [1, 9]: 16.93; Duplicate Ct [1, 9]: 17.16 |
| GATA4 (DNA AGGTTAGTTAGCGTTTTAGGGTC; listed as DNA, chemistry not given here) |  |  |  |  |  |  |  |  |  |  |  |  |  |  | 88 | 100 | 74 | 100 | 100 | 78 | Sensitivity (%) ([2]; second cut off ratio, between ( )): (82) %; Sens adenoma [3]: 15%; Sens CRC [3]: 73%; Spec [3]: 100% |
| MGMT (DNA TTTCGACGTTCGTAGGTTTTCGC; listed as DNA, chemistry not given here) |  |  |  |  |  |  |  |  |  |  |  |  |  |  | 63 | 100 | 35 | 100 | 100 | 44 |  |
| OSMR (3) (DNA TTTGGTCGGGGTAGGAGTAGC; listed as DNA, chemistry not given here) |  |  |  |  |  |  |  |  |  |  |  |  |  |  | 88 | 100 | 88 | 100 | 100 | 88 | Sens adenoma [3]: 8%; Sens CRC [3]: 67%; Spec [3]: 100% |
